Experimental data published in ChEMBL document CHEMBL1128908, “Synthesis and biological evaluation of 2,3-diarylthiophenes as selective cox-2 inhibitors. part II: Replacing the heterocycle” (Bioorg Med Chem Lett, 1996).

Tests used:
[1] = biological target: Prostaglandin G/H synthase 1 (Homo sapiens, UniProt P23219); assay: biochemical; assay type: cell-based, Sf9, Microsomes
Description: Inhibitory activity against human recombinant Prostaglandin G/H synthase 1 expressed in microsomes taken from baculovirus infected Sf9 cells

[2] = biological target: T1, Prostaglandin G/H synthase 2 (Homo sapiens, UniProt P35354); assay: biochemical; assay type: cell-based, Sf9, Microsomes
T1 sequence (P35354 whole entry): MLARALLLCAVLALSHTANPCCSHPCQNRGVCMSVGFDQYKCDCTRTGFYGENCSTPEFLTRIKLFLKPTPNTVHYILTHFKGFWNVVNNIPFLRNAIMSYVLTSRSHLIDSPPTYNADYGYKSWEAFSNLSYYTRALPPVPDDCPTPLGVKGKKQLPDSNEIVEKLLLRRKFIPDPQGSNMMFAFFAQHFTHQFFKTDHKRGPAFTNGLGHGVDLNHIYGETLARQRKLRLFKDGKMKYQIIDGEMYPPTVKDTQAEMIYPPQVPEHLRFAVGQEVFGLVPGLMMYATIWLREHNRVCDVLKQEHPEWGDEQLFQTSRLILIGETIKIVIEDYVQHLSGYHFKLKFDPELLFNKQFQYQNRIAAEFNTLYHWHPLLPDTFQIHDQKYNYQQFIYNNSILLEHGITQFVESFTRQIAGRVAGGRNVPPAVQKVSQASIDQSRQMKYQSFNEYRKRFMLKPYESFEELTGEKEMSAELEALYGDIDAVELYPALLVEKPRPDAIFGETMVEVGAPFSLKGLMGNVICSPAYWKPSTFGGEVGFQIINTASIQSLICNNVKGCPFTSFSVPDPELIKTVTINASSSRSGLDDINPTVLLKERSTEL
Description: Inhibitory activity against human recombinant Prostaglandin G/H synthase 2 expressed in microsomes taken from baculovirus infected Sf9 cells

Rattus norvegicus [3] = assay: Compound was evaluated in vivo for potency against rat paw edema model; assay type: functional
[4] = Plasma concentration at 2 hr in rats was evaluated.; assay type: ADME, organism-based; settings: rat
Rattus norvegicus [5] = assay: Compound was evaluated in vivo for effect on gastrointestinal integrity (GI) in rats using [51Cr]- assay: causes lesions; assay type: functional, organism-based
Rattus norvegicus [6] = assay: Compound was evaluated in vivo for effect on gastrointestinal integrity(GI) in rats using [51Cr]- assay: causes lesions; assay type: functional, organism-based
Rattus norvegicus [7] = assay: Compound was evaluated in vivo for effect on gastrointestinal integrity(GI) in rats using [51Cr]- assay: no lesions observed; assay type: functional, organism-based

Sequence of Prostaglandin G/H synthase 1 (P23219 whole entry): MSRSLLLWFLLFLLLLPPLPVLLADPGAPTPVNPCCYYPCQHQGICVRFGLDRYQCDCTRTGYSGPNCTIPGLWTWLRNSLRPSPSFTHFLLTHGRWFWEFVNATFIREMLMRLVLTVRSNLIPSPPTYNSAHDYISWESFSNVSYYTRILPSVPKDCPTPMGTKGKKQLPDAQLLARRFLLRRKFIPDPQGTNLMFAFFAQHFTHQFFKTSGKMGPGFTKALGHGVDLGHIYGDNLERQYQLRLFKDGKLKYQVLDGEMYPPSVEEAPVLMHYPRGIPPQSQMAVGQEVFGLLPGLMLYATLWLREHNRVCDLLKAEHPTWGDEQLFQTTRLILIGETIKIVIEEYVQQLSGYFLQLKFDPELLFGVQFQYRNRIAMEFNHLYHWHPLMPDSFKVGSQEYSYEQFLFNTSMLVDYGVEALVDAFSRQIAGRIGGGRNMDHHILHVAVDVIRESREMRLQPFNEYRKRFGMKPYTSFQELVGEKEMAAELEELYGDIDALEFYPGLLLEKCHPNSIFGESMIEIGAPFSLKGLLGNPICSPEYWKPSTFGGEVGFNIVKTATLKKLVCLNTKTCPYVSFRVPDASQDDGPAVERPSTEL

Row | IC50 [1] | IC50 [2] | Compound | further results
1 | > 50 µM | > 30 µM | CS(=O)(=O)c1ccc(-c2nnnn2-c2ccc(F)c(F)c2)cc1 | 
2 | > 100 µM | > 30 µM | CS(=O)(=O)c1ccc(-c2ocnc2-c2ccc(F)cc2)cc1 | 
3 | > 50 µM | > 30 µM | CC(C)(O)c1scc(-c2ccc(F)cc2)c1-c1ccc(S(C)(=O)=O)cc1 | 
4 |  |  | CS(=O)(=O)c1ccc(-c2cc(Br)sc2-c2ccc(F)cc2)cc1 [DUP-697] | ED50 (Rattus norvegicus [3]): 1.3 mg/kg; concentration at 2 h [4]: 700 ng/mL; growth inhibition (GI) (Rattus norvegicus [5]): causes lesions
5 | > 1.1 µM | 1.2 µM | CS(=O)(=O)c1ccc(-c2cc(C(F)(F)F)nn2-c2ccc(F)cc2)cc1 | 
6 |  |  | COc1ccc2c(c1)c(CC(=O)O)c(C)n2C(=O)c1ccc(Cl)cc1 [INDOMETHACIN] | growth inhibition (GI) (Rattus norvegicus [6]): Causes lesions; ED50 (Rattus norvegicus [3]): 2 mg/kg
7 | > 50 µM | > 10 µM | CS(=O)(=O)c1ccc(-c2c(-c3ccc(F)cc3)csc2CC(=O)O)cc1 | 
8 | > 100 µM | 0.31 µM | Cc1nc(-c2ccc(F)cc2)c(-c2ccc(S(C)(=O)=O)cc2)s1 | 
9 | > 50 µM | > 30 µM | CS(=O)(=O)c1ccc(-c2c(-c3ccc(F)cc3)csc2Br)cc1 | 
10 | > 100 µM | 5.1 µM | CS(=O)(=O)c1ccc(-c2sncc2-c2ccc(F)cc2)cc1 | 
11 | > 100 µM | 2.1 µM | CS(=O)(=O)c1ccc(-c2cnsc2-c2ccc(F)cc2)cc1 | ED50 (Rattus norvegicus [3]): 10 mg/kg; concentration at 2 h [4]: 2200 ng/mL
12 | > 50 µM | > 30 µM | CS(=O)(=O)c1ccc(-c2[nH]nnc2-c2ccccc2)cc1 | 
13 | > 100 µM | > 30 µM | CS(=O)(=O)c1ccc(-c2[nH]cnc2-c2ccc(F)cc2)cc1 | 
14 | 1.2 µM |  | CS(=O)(=O)c1ccc(-c2csc(Br)c2-c2ccc(F)cc2)cc1 | 
15 | > 50 µM | > 10 µM | CS(=O)(=O)c1ccc(-c2csc(CC(=O)O)c2-c2ccc(F)cc2)cc1 | 
16 | > 100 µM | > 30 µM | CS(=O)(=O)c1ccc(-n2nnnc2-c2ccc(F)c(F)c2)cc1 | 
17 | > 50 µM | > 30 µM | CS(=O)(=O)c1ccc(-c2oc(=O)oc2-c2ccccc2)cc1 | 
18 | > 50 µM | 5.9 µM | CC(C)(O)c1scc(-c2ccc(S(C)(=O)=O)cc2)c1-c1ccc(F)cc1 | 
19 | > 50 µM | 30 µM | CS(=O)(=O)c1ccc(C2=C(c3ccc(F)cc3)C3CCC2C3)cc1 (stereo unspecified) | 
20 | > 100 µM | 0.31 µM | Cc1nc(-c2ccc(S(C)(=O)=O)cc2)c(-c2ccc(F)cc2)s1 | 
21 | > 100 µM | > 30 µM | CS(=O)(=O)c1ccc(-c2ncoc2-c2ccc(F)cc2)cc1 | 
22 | > 100 µM | 0.47 µM | CS(=O)(=O)c1ccc(-c2cscc2-c2ccc(F)cc2)cc1 | 
23 | > 100 µM | 6.5 µM | CS(=O)(=O)c1ccc(-c2snnc2-c2ccc(F)cc2)cc1 | ED50 (Rattus norvegicus [3]): 0.7 mg/kg; growth inhibition (GI) (Rattus norvegicus [7]): no lesions observed; concentration at 2 h [4]: 12800 ng/mL
